Results taken from patent US11447467B2, “Compounds for the degradation of STK4 and treatment of hematologic malignancies” (DANA-FARBER CANCER INSTITUTE, INC., priority 2017, dated 2022).

Experiments:
[1] = system: Peripheral blood mononuclear cells (PBMCs) from healthy volunteer; experiment: MTT cell growth assay, peripheral blood mononuclear cells; assay type: cell-based, human; details: PBMCs from healthy volunteer vs MM.1S cells, 48 h
Experimental: (§1) Dexamethasone-sensitive MM.1S human MM cell line were kindly provided by Dr. Steven Rosen (Northwestern University, Chicago, Ill., United States). Creblon stable knockout MM.1S cells were established in our laboratory using lentiviral CRBN shRNA system. The cell lines were routinely tested for Mycoplasma, and genotyped with two different methods. Peripheral blood mononuclear cells were obtained from healthy volunteer by Ficoll-Paque centriguation. All MM cell lines and PBMCs were cultured in RPMI-1640 media (EuroClone, Pero, Italy) containing 10% fetal bovine serum (FBS, GIBCO, Life technologies, Carlsbad, Calif., United States), and a mix of penicillin and streptomycin to 1% from EuroClone (ECB3001).
MM.1S and CRBN-knockout MM.1S cells were counted and diluted to a final concentration of 400,000 cells/mL. The cell were plated in 96-well plates and mixed with an equal volume of culture media containing DMSO or increasing concentration of a compound of the present application diluted in DMSO (the final DMSO concentration is equal between all tested samples), using a STARlet Robot (Hamiltonrobotics, Reno, Nev., United States). Cells with increasing concentration of compound of the present application and DMSO were harvested at different time points (24 hrs to 72 hrs). […] Absorbance was read at 570/630 nm.

MM.1S cells = experiment: MTT cell growth assay, MM.1S cells; assay type: cell-based, human; details: 72 h; for MM cell growth inhibition (FIG. 10): 0.2-20 μM; for potency in inhibiting MM cell growth as compared to lenalidomide (FIG. 15): comparator lenalidomide (Len)
Experimental: as §1
(§2) MM.1S and CRBN-knockout MM.1S cells were counted and diluted to a final concentration of 400,000 cells/mL. The cell were plated in 96-well plates and mixed with an equal volume of culture media containing DMSO or increasing concentration of a compound of the present application diluted in DMSO (the final DMSO concentration is equal between all tested samples), using a STARlet Robot (Hamiltonrobotics, Reno, Nev., United States). Cells with increasing concentration of compound of the present application and DMSO were harvested at different time points (24 hrs to 72 hrs). For assessment of celll growth MTT assay, the 3-[4,5 dimethylthiazol-2-yl]-2,5 diphenyltetrazolium bromide-MTT (Sigma-Aldrich, St. Louis, Mo., Unites States) colorimetric assay was used. At the various time points (24-72 hrs), 10 μL of 5 mg/mL MTT were added to cells. After 4 hrs incubation at 37° C., medium was discarded and 100 μL MTT stop solution (Isopropanol with 1 N HCl) was used to dissolve MTT metabolic products. Absorbance was read at 570/630 nm.

[2] = system: MM.1S cells resistant to lenalidomide (Len-R #1); experiment: MTT cell growth assay, lenalidomide-resistant MM.1S cells; assay type: cell-based, human; details: Len-R #1 MM.1S cells, 0.2-20 μM, 72 h
STK4 = molecular target: T1, STK4 (Homo sapiens, UniProt Q13043); experiment: Western blotting of STK4 in whole cell lysates of MM.1S cells (parental or CRBN-knockout); assay type: cell-based; details: for degradation of STK4 in cereblon-knockout cells (FIG. 8): CRBN-K.O. vs parental MM.1S cells; for downregulation of STK4 in MM.1S cells (FIG. 7): 0.6-20 μM; for degradation of STK4 in the presence of MLN4924 (FIG. 9): compound 10 μM, NEDD8 inhibitor MLN4924 1 μM; for downregulation of STK4 over time (FIG. 3B): 10 μM; for downregulation of STK4 in MM.1S cells (FIG. 1): immunoblotting anti-STK4/anti-GAPDH
T1 construct: endogenous in cells; host or cells: MM.1S and CRBN-knockout MM.1S cells
T1 sequence (Q13043 1-487): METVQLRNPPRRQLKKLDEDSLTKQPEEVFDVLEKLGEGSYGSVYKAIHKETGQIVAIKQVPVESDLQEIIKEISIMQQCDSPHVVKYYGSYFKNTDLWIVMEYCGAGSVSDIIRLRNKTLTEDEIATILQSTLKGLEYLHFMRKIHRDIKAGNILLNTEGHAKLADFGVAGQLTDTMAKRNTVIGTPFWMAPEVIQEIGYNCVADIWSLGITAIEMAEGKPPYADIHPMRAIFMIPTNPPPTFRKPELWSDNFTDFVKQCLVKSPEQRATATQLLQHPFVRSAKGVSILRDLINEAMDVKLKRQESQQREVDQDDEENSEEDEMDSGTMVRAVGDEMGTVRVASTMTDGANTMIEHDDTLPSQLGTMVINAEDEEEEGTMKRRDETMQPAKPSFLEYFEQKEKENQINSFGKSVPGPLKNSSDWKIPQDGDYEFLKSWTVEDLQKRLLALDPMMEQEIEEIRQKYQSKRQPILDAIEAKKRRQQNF
From the text: MM.1S, KMS20 and H929 cells are counted, diluted and plated. Cells are then […] with DMSO or different concentration of a compound of the present application for 6 hrs, 24 hrs or 48 hrs. MM cells are then collected and centrifuged at RT and the pellets are re-suspended in lysis buffer. Cell lysates are subjected to sodium dodecyl sulfate-polyacrylamide gel electrophoresis SDS-PAGE, transferred to nitrocellulose membranes, and immunoblotted with different antibodies.
MM.1S and CRBN knockout MM.1S cells were counted, diluted and plated in six-well plates to a final concentration of 500,000 cells/well. Cells were then harvested with DMSO or different concentration of a compound of the present application (4 h-24 h). MM cells were then collected and centrifuged for 5 min, 1300 rpm at RT. The pellets were re-suspended in cell lysis buffer (20 mM Tris-HCl (pH 7.5), 150 mM NaCl, 1 mM Na2EDTA, 1 mM EGTA, 1% Triton, 2.5 mM sodium pyrophosphate, 1 mM beta-glycerophosphate, 1 mM Na3VO4, 1 μg/ml leupeptin. Cell lysates were subjected to sodium dodecyl sulfate-polyacrylamide gel electrophoresis SDS-PAGE, transferred to nitrocellulose membranes, and immunoblotted with different antibodies: MST1 (STK4) (#14946), K48-linkage Specific Polyubiquitin (#8081) and GAPDH (#5174) from Cell Signaling, Beverly, Mass., United States: IKZF1 (AF4984) (from R&D Systems, Mineapolis, Minn., United States). All antibodies were diluted 1:1000, except for GAPDH antibody (1:4,000 dilution).

[3] = system: CRBN-knockout MM.1S cells; experiment: MTT cell growth assay, CRBN-knockout MM.1S cells; assay type: cell-based, human; details: for cytotoxicity in CRBN-knockout cells (FIG. 11): 0.2-20 μM, 72 h; for cytotoxicity in CRBN-knockout cells (FIG. 5): parental or CRBN-knockout MM.1S cells, 24 h, 0.1-10 μM, MTT
Experimental: as §1, §2

[4] = MM.1S cells, 24 h, indicated concentrations

degradation of STK4 in cereblon-knockout cells (FIG. 8) (STK4; 24 h)	downregulation of STK4 in MM.1S cells (FIG. 7) (STK4; MM.1S cells, 24 h)	degradation of STK4 in the presence of MLN4924 (FIG. 9) (STK4; MM.1S cells, 24 h)	downregulation of STK4 in MM.1S cells (FIG. 1) (STK4; [4])	downregulation of STK4 in MM.1S cells (FIG. 2) (STK4; MM.1S cells, 24 h, 0.15-5 μM, Western blotting)	degradation of STK4 in cereblon-knockout cells (FIG. 4) (STK4; cereblon (CRBN)-knockout vs parental MM.1S cells, 24 h, indicated concentrations)	Compound	cytotoxicity to peripheral blood mononuclear cells (FIG. 13A/13B) [1]	MM cell growth inhibition (FIG. 10) (MM.1S cells)	potency in inhibiting MM cell growth as compared to lenalidomide (FIG. 15) (MM.1S cells)	cytotoxicity in acquired lenalidomide-resistant cells (FIG. 12B) [2]	cytotoxicity in CRBN-knockout cells (FIG. 11) [3]	downregulation of STK4 over time (FIG. 3B) (STK4; MM.1S cells, 4-24 h)	cytotoxicity in CRBN-knockout cells (FIG. 5) [3]	downregulation of STK4 over time (FIG. 3A) (STK4; MM.1S cells, 2.5 μM, 4-24 h)
–	–	–	dose dependent downregulation of STK4	dose dependent downregulation of STK4	absence of degradation of STK4	Nc1ncc(-c2ccc(S(=O)(=O)N(CCCNC(=O)CCOCCOCCOCCOCCOCCNc3cccc4c3C(=O)N(C3CCC(=O)NC3=O)C4=O)C3CC3)cc2F)cc1-c1ccc2c(c1)CCNC2=O (centres unmarked) [Compound I-19, N-(3-((4-(6-amino-5-(1-oxo-1,2,3,4-tetrahydroisoquinolin-6-yl)pyridin-3-yl)-N-cyclopropyl-3-fluorophenyl)sulfonamido)propyl)-1-((2-(2,6-dioxopiperidin-3-yl)-1,3-dioxoisoindolin-4-yl)amino)-3,6,9,12,15-pentaoxaoctadecan-18-amide]	–	–	–	–	–	–	decrease in cytotoxicity	downregulation of STK4 by compounds of the application in a time-dependent fashion
–	–	–	dose dependent downregulation of STK4	–	–	Nc1ncc(-c2ccc(S(=O)(=O)NC3CCCN(C(=O)CCOCCOCCOCCOCCOCCNc4cccc5c4C(=O)N(C4CCC(=O)NC4=O)C5=O)C3)cc2F)cc1-c1ccc2c(c1)CCNC2=O (centres unmarked) [Compound I-20, 4-(6-amino-5-(1-oxo-1,2,3,4-tetrahydroisoquinolin-1-yl)pyridin-3-yl)-N-(1-(1-((2-(2,6-dioxopiperidin-3-yl)-1,3-dioxoisoindolin-4-yl)amino)-3,6,9,12,15-pentaoxaoctadecan-18-oyl)piperidin-3-yl)-3-fluorobenzenesulfonamide]	–	–	–	–	–	–	–	–

The next lines start with the molecule.

Compound	degradation of STK4 in cereblon-knockout cells (FIG. 8) (STK4; 24 h)	downregulation of STK4 in MM.1S cells (FIG. 7) (STK4; MM.1S cells, 24 h)	degradation of STK4 in the presence of MLN4924 (FIG. 9) (STK4; MM.1S cells, 24 h)	downregulation of STK4 in MM.1S cells (FIG. 1) (STK4; [4])	downregulation of STK4 in MM.1S cells (FIG. 2) (STK4; MM.1S cells, 24 h, 0.15-5 μM, Western blotting)	degradation of STK4 in cereblon-knockout cells (FIG. 4) (STK4; cereblon (CRBN)-knockout vs parental MM.1S cells, 24 h, indicated concentrations)	cytotoxicity to peripheral blood mononuclear cells (FIG. 13A/13B) [1]	MM cell growth inhibition (FIG. 10) (MM.1S cells)	potency in inhibiting MM cell growth as compared to lenalidomide (FIG. 15) (MM.1S cells)	cytotoxicity in acquired lenalidomide-resistant cells (FIG. 12B) [2]	cytotoxicity in CRBN-knockout cells (FIG. 11) [3]	downregulation of STK4 over time (FIG. 3B) (STK4; MM.1S cells, 4-24 h)	cytotoxicity in CRBN-knockout cells (FIG. 5) [3]	downregulation of STK4 over time (FIG. 3A) (STK4; MM.1S cells, 2.5 μM, 4-24 h)
Nc1ncc(-c2ccc(S(=O)(=O)Nc3ccc(NC(=O)CCOCCOCCOCCOCCOCCNc4cccc5c4C(=O)N(C4CCC(=O)NC4=O)C5=O)cc3)cc2F)cc1-c1ccc2c(c1)CCNC2=O (centres unmarked) [Compound I-7, N-(4-((4-(6-amino-5-(1-oxo-1,2,3,4-tetrahydroisoquinolin-6-yl)pyridin-3-yl)-3-fluorophenyl)sulfonamido)phenyl)-1-((2-(2,6-dioxopiperidin-3-yl)-1,3-dioxoisoindolin-4-yl)amino)-3,6,9,12,15-pentaoxaoctadecan-18-amide]	absence of degradation of STK4	dose dependent downregulation of STK4	absence of degradation of STK4	–	–	–	absence of cytotoxic	potent MM cell growth inhibition	greater potency	decrease in cytotoxicity	decrease in cytotoxicity	–	–	–
Nc1ncc(-c2ccc(S(=O)(=O)Nc3cccc(NC(=O)CCOCCOCCOCCOCCOCCNc4cccc5c4C(=O)N(C4CCC(=O)NC4=O)C5=O)c3)cc2F)cc1-c1ccc2c(c1)CCNC2=O (centres unmarked) [Compound I-10]	absence of degradation of STK4	dose dependent downregulation of STK4	absence of degradation of STK4	dose dependent downregulation of STK4	–	–	absence of cytotoxic	potent MM cell growth inhibition	greater potency	decrease in cytotoxicity	decrease in cytotoxicity	downregulation of STK4 by compounds of the application in a time-dependent fashion	decrease in cytotoxicity	–
Nc1ncc(-c2ccc(S(=O)(=O)Nc3cccc(NC(=O)CCOCCOCCOCCOCCOCCOc4cccc5c4C(=O)N(C4CCC(=O)NC4=O)C5=O)c3)cc2F)cc1-c1ccc2c(c1)CCNC2=O (centres unmarked) [Compound I-17]	–	–	–	–	–	–	–	–	–	–	–	downregulation of STK4 by compounds of the application in a time-dependent fashion	–	–
